Measurements as given in patent US20190148754A1, “USE OF IONIC LIQUIDS AS AN ADJUVANT IN ELECTROCHEMISTRY” (UNIVERSITE DE RENNES 1, priority 2016, published 2019).
In brackets after ≈: the same amount, converted by molar mass. Where two headings read alike, the source gives them in different places. Values belong to the compound of their own block, whether it stands above or below them.

Experiments:
[1] = physchem; conditions: aqueous with cosolvent or surfactant or cyclodextrin, thermodynamic from solid, Solubility in KOH 2 mol · L^−1 and ionic liquid: Anthraquinone
Procedure: (§1) 100 mg of the targeted organic compound are introduced into a flask as well as the desired quantity of ionic liquid to be tested. A basic aqueous solution is added in portions of 0.1 mL until a solution is obtained. The maximum concentration is then determined in accordance with the following formula:
Cmax=[mcompound/Mcompound]/V
(§2) Cmax is the maximum concentration of given organic molecule in mol·L^−1, mcompound is the mass of the introduced organic molecule (in g), Mcompound is the molar mass of this organic molecule (in g·mol^−1) and V is the volume of added aqueous solution (in L).
(§3) The quinone is introduced into a volumetric flask (the quantity is dependent on the targeted concentration, generally between 0.1 and 0.5 M). The liquid is added (the quantity is dependent on the solubilising power of the ionic liquid, in stoichiometric quantity in relation to the quinone). An aqueous solution containing hydroxide ions at a concentration between 0.1 and 5 M is added until the flask is full.

[2] = Maximum solubility / solubilisation of organic compounds in ionic liquid/basic aqueous solution mixtures (flask method); conditions: for solubility: thermodynamic from solid; for natural solubility in a solution of pH=14: pH=14, without ionic liquid; for concentration of solution obtained: KOH 2M
Procedure: as §1
Cmax=[mcompound/Mcompound]/V
as §2, §3

[3] = Cyclic voltammetry of electrolytic solutions; type: physicochemical; conditions: vitreous carbon electrode
Procedure: The action of the ionic liquids on the solubility of the organic molecules can be observed by a simple electrochemical analysis. The method used is voltammetry with linear variation of the potential. The result is the plotting of a curve i=f(E) of which the value of the oxidation or reduction current of the electroactive molecule is proportional to its concentration in solution. The electrochemical analyses are performed in an electrochemical cell of which the volume is 40 ml. The volume of the solutions introduced into the electrochemical cell is 10 ml.
In order to perform the analyses, three electrodes immersed in the solution are used: • Working electrode. The working electrode is the location of the studied electrochemical reaction. In this instance, an electrode which is made of vitreous carbon and has a surface of 3 mm diameter, or a nickel electrode of 5 mm diameter was used. The electrochemical reactions are often sensitive to the nature of the electrodes. For example, depending on their nature, some electrodes may passivate and others may not, compared to the same electrochemical system in solution. • Counter electrode. The counter electrode enables the passage of the current in the solution between itself and the working electrode. This electrode must be very stable (for example must not dissolve in the event of oxidation). […]

[4] = aqueous KOH solution with ionic liquid, aqueous with cosolvent or surfactant or cyclodextrin, Solubility in KOH 2 mol · L^−1 and ionic liquid: Anthraquinone, KOH 2 mol·L^−1, ionic liquid (I-a), (I-b) or (I-c) 0.5 mol·L^−1
[5] = aqueous KOH solution without ionic liquid, aqueous buffer, Solubility in KOH 2 mol · L^−1, aqueous KOH 2 mol·L^−1, without ionic liquid

Compound: O=C1c2ccccc2C(=O)c2ccccc21
- solubility [1]: < 100 mM
- natural solubility in a solution of pH=14: very weak

Compound: O=C1c2cccc(O)c2C(=O)c2cccc(O)c21
- solubility [2, 4]: 500 mM (≈ 120 mg/mL)
- solubility [2, 5]: 100 mM (≈ 24 mg/mL)

Compound: O=C1c2ccccc2C(=O)c2cc(S(=O)(=O)O)ccc21
- solubility [2, 4]: 100 mM (≈ 28.8 mg/mL)
- solubility [2, 5]: < 100 mM
- natural solubility in a solution of pH=14 [2]: very weak

Compound: O=C1c2ccccc2C(=O)c2c1cc(S(=O)(=O)[O-])c(O)c2O.[Na+] [Alizarin redS, Alizarin Red S]
- solubility ([2]; aqueous KOH solution with ionic liquid, aqueous with cosolvent or surfactant or cyclodextrin, Solubility in KOH 2 mol · L^−1 and ionic liquid: Anthraquinone, KOH 2 mol·L^−1, ionic liquid (I-a), (I-b) or (I-c) 0.6 mol·L^−1): 600 mM
- solubility ([2]; aqueous KOH solution with ionic liquid, aqueous with cosolvent or surfactant or cyclodextrin, solubility in the presence of ionic liquid, KOH 2 mol·L^−1, 0.6 M ionic liquid): 600 mM
- solubility [2, 5]: 200 mM
- solubility ([2]; aqueous KOH solution without ionic liquid, aqueous buffer, solubility in a solution of KOH 2 mol·L^−1, KOH 2 mol·L^−1, without ionic liquid): ~200 mM
- increase in the intensity of the oxidation peak and the reduction peak (factor) ([3]; 0.6 M ionic liquid vs none, 100 mV·s^−1 (FIG. 1)): 15
- peak current intensity ([3]; 0.6 mol·L^−1 with 0.6 mol·L^−1 ionic liquid, 100 mV·s^−1): greater than 60 mA·cm^−2

Further lines, results first:

- solubility [2, 4]: 100 mM (≈ 22.3 mg/mL)
- solubility [2, 5]: < 100 mM
- natural solubility in a solution of pH=14 [2]: very weak
Compound: Nc1cccc2c1C(=O)c1ccccc1C2=O

- concentration of solution obtained ([2]; 1,3-dimethylimidazolium methyl sulfate 1:1 with alizarin): greater than 0.5 M
- concentration of solution obtained ([2]; 1,3-dimethylimidazolium methyl sulfate less than 1:1 to alizarin, precipitate still visible): < 0.5 M
- concentration of solution obtained ([2]; N-methylisoquinolinium methyl sulfate 1:1 with alizarin, precipitate still visible): < 0.5 M
- concentration in aqueous solution of KOH 2 M with ionic liquid ([2]; KOH 2 M, addition of 10% (vol.) ionic liquid): 0.5 M
- concentration of solution obtained ([2]; alizarin/1,3-dimethylimidazolium methyl sulfate/N-methylisoquinolinium methyl sulfate 1:0.5:0.5): 0.8 M
- concentration of solution obtained ([2]; either isolated ionic liquid, alizarin/ionic liquid 1:0.5, no solution obtained): < 0.5 M
- solubility [2, 4]: 500 mM (≈ 120 mg/mL)
- solubility ([2]; aqueous KOH solution with ionic liquid, aqueous with cosolvent or surfactant or cyclodextrin, concentration solubilised in aqueous solution of KOH 2 M with ionic liquid, KOH 2 M, 5% (vol.) ionic liquid): 250 mM (≈ 60.1 mg/mL)
- solubility [2, 5]: 100 mM (≈ 24 mg/mL)
- solubility ([2]; aqueous KOH solution without ionic liquid, aqueous buffer, soluble concentration in aqueous solution of KOH 2 M, KOH 2 M, without ionic liquid (saturation)): 100 mM (≈ 24 mg/mL)
Compound: O=C1c2ccccc2C(=O)c2c1ccc(O)c2O [alizarin, Alizarin]
